One test relates to U-2 OS cells. The test can be described thus: Cell cycle analysis by flow cytometry, OS cells. The class given is cell-based, human. Conditions: 48 h, U-2 OS compared with ES cells. On the procedure: For the evaluation of cell cycle, cell cultures were incubated with 10 μmol/L bromodeoxyuridine (BrdU) (Sigma-Aldrich) for 1 h in a CO2 atmosphere at 37° C. Harvested cells were fixed in ice-cold 70% ethanol for 30 min. After DNA denaturation with 2 N HCl for 30 min at room temperature, cells were washed with 0.1 M Na2B4O7, pH 8.5 and processed for indirect immunofluorescence staining, using α-BrdU (BD Biosciences (San Jose, Calif.)) diluted 1:4 as a primary MAb and α-mouse FITC (1:100—Thermo Scientific (Waltham, Mass.)) as a secondary antibody. After treatment with 0.5 mg/ml RNase and staining with 20 μg/ml propidium iodide, cells were and analyzed by flow cytometry (FACSCalibur; Becton Dickinson (Franklin Lakes, N.J.)) for cell cycle evaluation and for assessing cell death by DNA content analysis.
(In general: Flow cytometry measures light scatter and fluorescence of single cells or particles in a stream.)

The subject of test [1] is MG63.3 OS cells transfected with DCK siRNA. The test can be described thus: Response to clofarabine after DCK siRNA, OS cells. Conditions: MG63.3, DCK siRNA. The class given is cell-based, human.
From the text: The expression of DCK and CD99 was suppressed transiently by using a validated small interfering RNA (siRNA) duplexes targeting coding region (Invitrogen (Carlsbad, Calif.); #s186 and #s8768, respectively). Silencer™ Select Negative Control No. 2 siRNA (Invitrogen) was used as the control. Cells were transfected with DCK or CD99 or control siRNA oligonucleotides using X-tremeGene siRNA transfection reagent (Roche Diagnostics (Basel, Switzerland)) according to the manufacturer's protocol. The cells were analyzed for DCK and CD99 knockdown after 45 or 72 h by immunoblotting.

The source of these data is patent US11202792B2, “CD99 inhibitors and their uses” (GEORGETOWN UNIVERSITY, priority 2016, dated 2021).

The structures appear in SMILES notation.

For `Nc1nc(Cl)nc2c1ncn2[C@H]1C[C@H](O)[C@@H](CO)O1` [cladribine], the cell cycle effect result in the test on U-2 OS cells is “more pronounced”.

For the compound `Nc1nc(Cl)nc2c1ncn2[C@@H]1O[C@H](CO)[C@@H](O)[C@@H]1F` [clofarabine], the “response after inhibiting DCK protein expression” value in test [1] is reported as “complete resistance”.
